# Results published in patent US20220232831A1, “NOVEL NON-CODING HETEROCYCLIC AMINO ACIDS (NCHAA) AND THEIR USE AS HERBICIDES” (Fortephest Ltd., priority 2019, published 2022).
# Legend:
# [1] = tested on: Romaine lettuce (Lactuca sativa L.) plants; experiment: Post-emergency herbicidal activity on Romaine lettuce plants; format: in vivo; conditions: Romaine lettuce at stage 2 to 3 leaves; compound in 0.1% Silwet, up to 0.5%; visual evaluation vs control plants
# Experimental: The tests were performed on Romaine lettuce (Lactuca sativa L.) plants at the stage 2 to 3 leaves. The plants were grown on 300 well trays packed with soil, well dimensions 2×2×5 cm. Each compound was dissolved in 0.1% water solution of agronomically acceptable surfactant Silwet to final concentrations ranging from 0.0% (Control) to 0.5%. Two weeks after the treatment the herbicidal effects of the respective test material were visually evaluated by a comparison with the control plants. In addition, the aboveground part of the plant was neatly cut and weighed (wet weight). Each test was performed on 20 to 40 plants. The degree of growth inhibition and damage was evaluated according to the parameters in Table 2. Plant development at 7, 14, and 21 DAA (days after application) were evaluated on a scale of 0 to 100, in which score 0 represents dead plants and score 100 represents healthy plants according to plant vigor, height, and leaf color. Each test included 20 to 40 plants.
# [2] = tested on: Seeds of Lettuce R. (Super-Jericho); experiment: Filter paper bioassay with lettuce seeds (germination and early plant development); format: in vivo; conditions: lettuce seeds on filter paper; 1, 0.1, 0.01, 0.001 mM; radicle and shoots assessed after 6 days
# Experimental: Seeds of Lettuce R. (Super-Jericho, non-sterilized) were obtained from Ben Shahar Moshe Ltd., 99% purity.
# Filter Paper Bioassays with Lettuce Seeds:
# The protocol is following Bertin et al. 2009 and Movellan et al. 2014 with specified modifications as described below.
# Seeds were placed on Whatman no. 1 filter paper (Whatman, Middlesex, U.K.) in Petri dishes (10 seeds per plate) supplemented with 2.0 ml of water (Control) or with a solution comprising 1 mM, 0.1 mM, 0.01 mM and 0.001 mM of test material. Petri dishes with seeds were placed in a tray at an angle of 45°. The trays were kept in dark for 48 hours and then transferred to the growth chamber (22° C., 0.045 mmol×m−2×s−1 photosynthetic photon flux density; 6/18 dark/light cycle) for additional 4 days. Each experiment was performed at least in two repeats. The development of radicle and shoots of experimental and control plants were visually assessed 6 days after the beginning of the test to determine Minimal Effective Concentration (MEC) of test material. In the context of the invention, MEC is defined as the lowest concentration level of a test material that caused deviation (absence of germination or malformation of radicle and shoots) from the plant's development in the Control group.
SMILES,post-emergency herbicidal activity (Activity Index: plant's development vs Control) [1],"Minimal Effective Concentration (MEC) as activity score, seeds germination & early plants development [2]"
NC(Cc1cncc(Cl)c1)C(=O)O (centres unmarked) [Code 622],Moderate (From 50 to 75),Strong (0.1 mM)
NC(Cc1cc(Cl)cnc1Cl)C(=O)O (centres unmarked) [Code 624],Moderate (From 50 to 75),Moderate (1 mM)
NC(Cc1ccncn1)C(=O)O (centres unmarked) [Code 625],Weak (More than 75),Moderate (1 mM)
NC(Cc1cncc(F)c1)C(=O)O (centres unmarked) [Code 626],Strong (From 25 to 50),Strong (0.1 mM)
NC(Cc1ccc(Cl)nc1)C(=O)O (centres unmarked) [Code 627],Moderate (From 50 to 75),Strong (0.1 mM)
NC(Cc1cc(Cl)nc(Cl)c1)C(=O)O (centres unmarked) [Code 628],Very Strong (From 15 to 25),Moderate (1 mM)
NC(Cc1c(Cl)cncc1Cl)C(=O)O (centres unmarked) [Code 629],Moderate (From 50 to 75),Weak (More than 1 mM)
NC(Cc1c(F)cncc1F)C(=O)O (centres unmarked) [Code 630],Strong (From 25 to 50),Moderate (1 mM)
CN(C)c1cc(CC(N)C(=O)O)ccn1 (centres unmarked) [Code 631],Weak (More than 75),Weak (More than 1 mM)
NC(Cc1cnc(Br)c(Br)c1)C(=O)O (centres unmarked) [Code 633],Strong (From 25 to 50),Strong (0.1 mM)
NC(Cc1cc(Br)nc(Br)c1)C(=O)O (centres unmarked) [Code 634],Very Strong (From 15 to 25),Strong (0.1 mM)
NC(Cc1ccnc(Br)c1Br)C(=O)O (centres unmarked) [Code 635],Weak (More than 75),Weak (More than 1 mM)
NC(Cc1cncc(C(F)(F)F)c1)C(=O)O (centres unmarked) [Code 637],Weak (More than 75),Strong (0.1 mM)
NC(Cc1cnc(Cl)c(Cl)c1)C(=O)O (centres unmarked) [Code 641],Very Strong (From 15 to 25),Strong (0.1 mM)
NC(Cc1cc[nH]c(=O)c1)C(=O)O (centres unmarked) [Code 642],Weak (More than 75),Weak (More than 1 mM)
CN(C)c1ccncc1CC(N)C(=O)O (centres unmarked) [Code 643],Weak (More than 75),Weak (More than 1 mM)
NC(Cc1ccc[nH]c1=O)C(=O)O (centres unmarked) [Code 644],Weak (More than 75),Weak (More than 1 mM)
NC(Cc1cc(=O)[nH]cn1)C(=O)O (centres unmarked) [Code 645],Weak (More than 75),Weak (More than 1 mM)
NC(Cc1cnc[nH]c1=O)C(=O)O (centres unmarked) [Code 646],Weak (More than 75),Weak (More than 1 mM)
NC(Cc1ccc(=O)[nH]c1)C(=O)O (centres unmarked) [Code 650],Weak (More than 75),Moderate (1 mM)

SMILES,post-emergency herbicidal activity (Activity Index: plant's development vs Control) [1],"Minimal Effective Concentration (MEC) as activity score, seeds germination & early plants development [2]"
NC(Cc1cc(=O)[nH]c(=O)[nH]1)C(=O)O (centres unmarked) [Code 652],Weak (More than 75),Weak (More than 1 mM)
NC(Cc1cc(=O)[nH]c(S)n1)C(=O)O (centres unmarked) [Code 653],Weak (More than 75),Weak (More than 1 mM)
CCCOC(=O)C(N)Cc1ccnc(Br)c1 (centres unmarked) [Code 654],Strong (From 25 to 50),Strong (0.1 mM)
NC(Cc1c(F)cnc(Br)c1F)C(=O)O (centres unmarked) [Code 655],Maximal (Less than 15),Strong (0.1 mM)
CCCOC(=O)C(N)Cc1c(F)cnc(Br)c1F (centres unmarked) [Code 656],Very Strong (From 15 to 25),Strong (0.1 mM)
NC(CNS(=O)(=O)c1ccnc(Br)c1)C(=O)O (centres unmarked) [Code 657],Weak (More than 75),Weak (More than 1 mM)
CCCOC(=O)C(N)CNS(=O)(=O)c1ccnc(Br)c1 (centres unmarked) [Code 658],Weak (More than 75),Weak (More than 1 mM)
CCOC(=O)C(N)Cc1cnc(Br)c(Br)c1 (centres unmarked) [Code 661],Moderate (From 50 to 75),Maximal (0.01 mM and less)
CCOC(=O)C(N)Cc1ccnc(Br)c1Br (centres unmarked) [Code 662],Moderate (From 50 to 75),Strong (0.1 mM)
NC(Cc1cc(C(F)(F)F)cnc1Cl)C(=O)O (centres unmarked) [Code 663],Moderate (From 50 to 75),Strong (0.1 mM)
Nc1ncc(CC(N)C(=O)O)c(=O)[nH]1 (centres unmarked) [Code 664],Weak (More than 75),Moderate (1 mM)
NC(Cc1cnc(O)c([N+](=O)[O-])c1)C(=O)O (centres unmarked) [Code 665],Weak (More than 75),Moderate (1 mM)
COC(=O)C(N)Cc1ccnc(Br)c1 (centres unmarked) [Code 666],Maximal (Less than 15),Strong (0.1 mM)
C[n+]1cccc(CC(N)C(=O)O)c1 (centres unmarked) [Code 667],Weak (More than 75),Weak (More than 1 mM)
NC(Cc1ccc[n+](O)c1)C(=O)O (centres unmarked) [Code 668],Weak (More than 75),Weak (More than 1 mM)
Cc1nc(N)c(CC(N)C(=O)O)c(O)n1 (centres unmarked) [Code 669],Weak (More than 75),Weak (More than 1 mM)
COC(=O)C(N)Cc1cc(Br)nc(Br)c1 (centres unmarked) [Code 670],Very Strong (From 15 to 25),Strong (0.1 mM)
CCOC(=O)C(Cc1ccc(Br)nc1)NC(C)=O (centres unmarked) [Code 671],Weak (More than 75),Strong (0.1 mM)
COC(=O)C(Cc1ccc(Br)nc1)NC(C)=O (centres unmarked) [Code 672],Moderate (From 50 to 75),Strong (0.1 mM)
CCOC(=O)C(Cc1ccnc(OC)n1)NC(C)=O (centres unmarked) [Code 673],Weak (More than 75),Weak (More than 1 mM)
